Here are results for one compound from publication PMC2621068 (Neuropeptides, 2008).

Assay [1] relates to Kuming mice. Type of assay: in vivo, mouse. The settings on record: n = 8.
In the next assay the test system is female Kuming mice. The settings on record: mouse, in vivo.
The subject of assay [2] is Kuming mice. The settings on record: mouse, in vivo.

On to `CC(C(O)c1ccc(O)cc1)N1CCC(Cc2ccccc2)CC1` (centres unmarked) [ifenprodil, reference compound], for which, in the assay on Kuming mice [1], the “first phase response of the formalin test (in words)” value is “without effect in both phases” and the “second phase response of the formalin test (in words)” value is listed as “without effect in both phases”. Also, in the assay with female Kuming mice, the “Paw withdrawal latency after administration, 30 min” value is 11.1 ± 3.7 s; the “Paw withdrawal latency after administration, 90 min” value is listed as 11.1 ± 4.6 s; the “Paw withdrawal latency after administration, 150 min” value worked out at 11.2 ± 3.0 s; the “Paw withdrawal latency after administration, 240 min” value is given as 12.8 ± 3.0 s. Also, in the assay on female Kuming mice, the “Paw withdrawal latency before administration” value is on record as 10.8 ± 2.4 s and the “antinociception in the hot-plate test (in words)” value was “had no effect”. In the assay on Kuming mice [2], the “Increase in paw width” value is on record as 1.10 ± 0.05 mm; the “Injected paw width, after formalin injection” value is reported as 2.70 ± 0.04 mm; the “Injected paw width, before formalin injection” value is 1.59 ± 0.04 mm.
